Experimental data from patent publication US10946007B2, “4-[2-(2-fluorophenoxymethyl)phenyl]piperidine compounds” (THERAVANCE BIOPHARMA R&D IP, LLC, priority 2008, dated 2021).

What was measured:
hNET = biological target: T1, hNET (Homo sapiens, UniProt P23975); assay: hNET membrane radioligand binding assay (Assay 1, 3H-nisoxetine); settings: Assay 1, membranes of HEK-293 cells expressing hNET; read-out: NET pKi (converted)
T1 construct: expressed in transfected cells; host or cells: HEK-293
Protocol: (§1) Membrane radioligand binding assays were used to measure competitive inhibition of labeled ligand (^3H-citalopram or ^3H-nisoxetine or ^3H-WIN35428) binding to membranes prepared from cells expressing the respective human recombinant transporter (hSERT or hNET or hDAT) in order to determine the pKi values of test compounds at the transporters.
(§2) Recombinant human embryonic kidney (HEK-293) derived cell lines stably transfected with hSERT or hNET, respectively, were grown in DMEM medium supplemented with 10% dialyzed FBS (for hSERT) or FBS (for hNET), 100 μg/ml penicillin, 100 μg/ml streptomycin, 2 mM L-glutamine and 250 μg/ml of the aminoglycoside antibiotic G418, in a 5% CO2 humidified incubator at 37° C. When cultures reached 80% confluence, the cells were washed thoroughly in PBS (without Ca^2+ and Mg^2+) and lifted with 5 mM EDTA in PBS. Cells were pelleted by centrifugation, resuspended in lysis buffer (10 mM Tris-HCl, pH7.5 containing 1 mM EDTA), homogenized, pelleted by centrifugation, then resuspended in 50 mM Tris-HCl, pH 7.5 and 10% sucrose at 4° C. Protein concentration of the membrane suspension was determined using a Bio-Rad Bradford Protein Assay kit. Membranes were snap frozen and stored at −80° C. Chinese hamster ovary membranes expressing hDAT (CHO-DAT) were purchased from PerkinElmer and stored at −80° C.
(§3) Binding assays were performed in a 96-well assay plate in a total volume of 200 μl assay buffer (50 mM Tris-HCl, 120 mM NaCl, 5 mM KCl, pH 7.4) with 0.5, 1, and 3 μg membrane protein, for SERT, NET and DAT, respectively.
(§4) Stock solutions (10 mM in DMSO) of test compound were prepared and serial dilutions made using Dilution Buffer (50 mM Tris-HCl, 120 mM NaCl, 5 mM KCl, pH 7.4, 0.1% BSA, 400 μM ascorbic acid).
(§5) Following a 60 minute incubation at 22° C. (or a period sufficient to reach equilibrium), the membranes were harvested by rapid filtration over a 96-well UniFilter GF/B plate, pretreated with 0.3% polyethyleneimine, and washed 6 times with 300 μl wash buffer (50 mM Tris-HCl, 0.9% NaCl, pH 7.5 at 4° C.). Plates were dried overnight at room temperature, 45 μl of MicroScint™-20 (Perkin Elmer) added and bound radioactivity quantitated via liquid scintillation spectroscopy. Competitive inhibition curves and saturation isotherms were analyzed using GraphPad Prism Software package (GraphPad Software, Inc., San Diego, Calif.). IC50 values were generated from concentration response curves using the Sigmoidal Dose Response (variable slope) algorithm in Prism GraphPad.

hSERT = biological target: T2, hSERT (Homo sapiens, UniProt P31645); assay: hSERT membrane radioligand binding assay (Assay 1, 3H-citalopram); settings: Assay 1, membranes of HEK-293 cells expressing hSERT; read-out: SERT pKi (converted)
T2 construct: expressed in transfected cells; host or cells: HEK-293
T2 sequence (P31645 whole entry): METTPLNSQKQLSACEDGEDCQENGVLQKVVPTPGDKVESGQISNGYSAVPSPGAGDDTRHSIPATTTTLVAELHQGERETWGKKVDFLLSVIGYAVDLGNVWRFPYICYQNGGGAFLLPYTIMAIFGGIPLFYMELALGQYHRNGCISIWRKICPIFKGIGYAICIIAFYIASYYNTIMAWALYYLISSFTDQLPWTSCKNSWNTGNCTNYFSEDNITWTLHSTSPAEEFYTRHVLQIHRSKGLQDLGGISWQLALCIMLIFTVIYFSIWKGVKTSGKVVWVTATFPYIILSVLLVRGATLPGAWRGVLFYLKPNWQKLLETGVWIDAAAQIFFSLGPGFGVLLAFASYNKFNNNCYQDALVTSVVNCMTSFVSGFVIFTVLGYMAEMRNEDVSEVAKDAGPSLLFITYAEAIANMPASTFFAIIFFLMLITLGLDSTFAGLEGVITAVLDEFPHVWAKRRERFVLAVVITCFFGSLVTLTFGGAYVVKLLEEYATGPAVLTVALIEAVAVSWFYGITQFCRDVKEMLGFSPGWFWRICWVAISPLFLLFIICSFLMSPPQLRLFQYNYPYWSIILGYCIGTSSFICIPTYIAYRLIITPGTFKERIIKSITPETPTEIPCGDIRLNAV
Protocol: as §1, §2, §3, §4, §5

T1 sequence (P23975 whole entry): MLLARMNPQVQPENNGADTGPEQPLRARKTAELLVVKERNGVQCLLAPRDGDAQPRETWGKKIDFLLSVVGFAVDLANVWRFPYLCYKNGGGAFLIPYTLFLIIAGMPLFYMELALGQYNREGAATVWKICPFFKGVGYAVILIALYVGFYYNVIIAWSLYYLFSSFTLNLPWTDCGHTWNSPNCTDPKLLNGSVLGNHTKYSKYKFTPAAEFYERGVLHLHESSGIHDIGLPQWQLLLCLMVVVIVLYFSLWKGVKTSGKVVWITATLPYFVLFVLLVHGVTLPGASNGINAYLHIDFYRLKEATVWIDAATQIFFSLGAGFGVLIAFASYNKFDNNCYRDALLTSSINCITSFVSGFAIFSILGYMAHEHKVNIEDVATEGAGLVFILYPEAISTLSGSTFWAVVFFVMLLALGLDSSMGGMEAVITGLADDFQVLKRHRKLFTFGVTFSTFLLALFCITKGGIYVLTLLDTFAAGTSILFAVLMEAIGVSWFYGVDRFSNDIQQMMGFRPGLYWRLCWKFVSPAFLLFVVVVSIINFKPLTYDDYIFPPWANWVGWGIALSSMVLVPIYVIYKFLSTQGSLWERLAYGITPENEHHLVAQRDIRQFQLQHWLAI

Ki (hNET) | Ki (hSERT) | Structure (SMILES)
31.6 nM | 3.98 nM | Clc1ccccc1OCc1ccccc1C1CCNCC1 [Compound 2-chloro]
31.6 nM | 1.58 nM | Cc1ccccc1OCc1ccccc1C1CCNCC1 [Compound 2-methyl]
5.01 nM | 12.6 nM | Fc1ccccc1OCc1ccccc1C1CCNCC1 [Compound 3-1]
39.8 nM | 31.6 nM | c1ccc(OCc2ccccc2C2CCNCC2)cc1 [unsubstituted]
